Laboratory results published in patent US20200216499A1, “ANGIOTENSIN-(1-7) ANALOGS AND METHODS RELATING THERETO” (WAKE FOREST UNIVERSITY HEALTH SCIENCES, priority 2015, published 2020).
“Also recorded” adds a separate entry of the source.

Legend:
human ACE = human ACE (Homo sapiens, UniProt P12821); assay: Degradation by ACE (HPLC of reaction products); format: in vitro ADME; settings: 100 μM peptide, 1.0 μg human ACE, reaction buffer pH 7.4, 2 hours at 37° C., HPLC UV 220 nm
Description: (§1) FIGS. 2A-4D show graphs depicting enzymatic digestion by angiotensin converting enzyme (ACE) of Ang-(1-7), Ang-(1-7)-ACCA^5, Ang-(1-7)-ACCA^6, and Ang-(1-7)-ACCA^3, respectively, in accordance with one aspect. The peptides (100 μM) were incubated with human ACE (1.0 μg) in reaction buffer for 2 hours at 37° C. in a final volume of 100 μL, and the reaction products assessed by HPLC (UV 220 nm).
Analogs with ACCA at position 5 (Ang-(1-7)-ACCA^5), position 6 (Ang-(1-7)-ACCA^6), and position 3 (Ang-(1-7)-ACCA^3) were assessed to determine whether the analogs were degraded by ACE. Ang-(1-7) served as the control. Specifically, 100 μM of one of the three analogs or Ang-(1-7) was incubated with 1.0 μg of human ACE in reaction buffer (25 mM Hepes, 125 mM NaCl, 10 μM ZnCl2, pH 7.4) for 2 hours at 37° C. in a final volume of 100 μL. The resultant reaction products were separated by high pressure liquid chromatography (HPLC) on a Phenomenex Aeris Peptide C18 column using a Shimadzu Prominence system and detected by UV analysis at 220 nm.

Human DPP III = target: T1, Human DPP III (Homo sapiens, UniProt Q9NY33); assay: Degradation by DPP III (HPLC of reaction products); format: in vitro ADME; settings: 100 μM peptide, 1.0 μg human DPP III, 2 hours at 37° C., HPLC UV 220 nm
T1 sequence (Q9NY33 1-737): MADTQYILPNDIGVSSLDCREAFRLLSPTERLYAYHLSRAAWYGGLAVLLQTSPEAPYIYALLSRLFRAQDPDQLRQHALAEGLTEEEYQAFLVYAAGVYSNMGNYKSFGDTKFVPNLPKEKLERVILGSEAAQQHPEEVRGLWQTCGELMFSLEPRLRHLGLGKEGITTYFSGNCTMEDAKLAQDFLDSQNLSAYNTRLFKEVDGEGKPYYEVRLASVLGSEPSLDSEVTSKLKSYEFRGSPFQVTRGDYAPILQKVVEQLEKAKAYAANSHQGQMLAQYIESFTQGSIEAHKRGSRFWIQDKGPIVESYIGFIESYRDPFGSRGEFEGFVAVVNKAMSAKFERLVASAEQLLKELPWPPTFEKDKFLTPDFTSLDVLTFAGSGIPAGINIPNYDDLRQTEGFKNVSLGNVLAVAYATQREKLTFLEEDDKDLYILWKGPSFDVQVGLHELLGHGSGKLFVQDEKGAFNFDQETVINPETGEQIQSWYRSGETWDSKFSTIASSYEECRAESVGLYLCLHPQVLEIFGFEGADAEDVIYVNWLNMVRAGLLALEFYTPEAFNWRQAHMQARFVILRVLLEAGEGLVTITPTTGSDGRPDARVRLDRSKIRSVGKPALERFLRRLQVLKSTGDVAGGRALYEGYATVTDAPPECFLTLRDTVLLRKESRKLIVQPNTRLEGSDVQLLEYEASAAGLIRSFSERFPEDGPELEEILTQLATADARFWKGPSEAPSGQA
Description: as §1, with “3A-5D” for “2A-4D”, “dipeptidyl peptidase III (DPE III)” for “angiotensin converting enzyme (ACE)”, “DPE III” for “ACE”
The Ang-(1-7) and the analogs Ang-(1-7)-ACCA^5, Ang-(1-7)-ACCA^6, and Ang-(1-7)-ACCA^3 were assessed to determine whether they were resistant to metabolism by the enzyme dipeptidyl peptidase III (DPP III). DPP III metabolizes Ang-(1-7) at different sites as compared to ACE (Chappell et al., Front Endocrinol (Lausanne) 4:201 (pp. 1-13) (2014)). The incubation conditions and detection methods for the metabolism by DPP III were identical to that used to assess degradation by ACE as described in Example 3.

[1] = cited from earlier work

Chain of human ACE (P12821 30-1306): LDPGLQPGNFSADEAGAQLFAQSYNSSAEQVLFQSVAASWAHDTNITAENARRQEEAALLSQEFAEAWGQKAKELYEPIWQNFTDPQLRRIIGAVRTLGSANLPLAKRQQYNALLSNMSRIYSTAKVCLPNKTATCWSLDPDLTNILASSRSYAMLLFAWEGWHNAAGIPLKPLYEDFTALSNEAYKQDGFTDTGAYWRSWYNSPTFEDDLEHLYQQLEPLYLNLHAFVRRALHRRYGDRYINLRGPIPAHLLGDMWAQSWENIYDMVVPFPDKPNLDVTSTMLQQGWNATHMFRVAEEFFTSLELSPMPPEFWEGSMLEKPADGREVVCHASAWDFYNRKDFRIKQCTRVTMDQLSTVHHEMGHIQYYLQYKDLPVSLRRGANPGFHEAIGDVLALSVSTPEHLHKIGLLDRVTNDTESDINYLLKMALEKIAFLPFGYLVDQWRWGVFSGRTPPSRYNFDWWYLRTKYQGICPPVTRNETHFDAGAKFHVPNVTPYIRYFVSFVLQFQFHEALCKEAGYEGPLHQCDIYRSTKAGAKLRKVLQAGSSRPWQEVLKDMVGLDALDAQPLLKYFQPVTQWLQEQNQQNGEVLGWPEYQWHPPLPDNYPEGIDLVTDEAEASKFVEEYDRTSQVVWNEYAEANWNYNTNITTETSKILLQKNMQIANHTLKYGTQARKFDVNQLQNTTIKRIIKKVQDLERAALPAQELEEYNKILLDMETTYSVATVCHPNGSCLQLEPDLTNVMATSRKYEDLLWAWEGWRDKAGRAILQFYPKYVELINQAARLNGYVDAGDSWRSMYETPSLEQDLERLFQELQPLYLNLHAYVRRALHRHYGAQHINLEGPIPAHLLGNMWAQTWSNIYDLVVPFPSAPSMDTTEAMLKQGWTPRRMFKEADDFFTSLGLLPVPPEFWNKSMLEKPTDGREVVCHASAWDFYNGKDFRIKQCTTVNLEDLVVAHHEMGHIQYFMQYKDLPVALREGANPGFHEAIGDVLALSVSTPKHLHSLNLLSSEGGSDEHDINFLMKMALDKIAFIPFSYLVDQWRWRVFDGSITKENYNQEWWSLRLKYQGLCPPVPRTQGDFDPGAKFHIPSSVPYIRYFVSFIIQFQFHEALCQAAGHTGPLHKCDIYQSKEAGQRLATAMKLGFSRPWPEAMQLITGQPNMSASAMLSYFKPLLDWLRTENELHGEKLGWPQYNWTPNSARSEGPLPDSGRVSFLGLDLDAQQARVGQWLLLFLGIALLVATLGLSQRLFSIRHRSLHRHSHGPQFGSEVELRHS

## CC[C@H](C)[C@H](NC(=O)[C@H](Cc1ccc(O)cc1)NC(=O)[C@@H](NC(=O)[C@H](CCCNC(=N)N)NC(=O)[C@@H](N)CC(=O)O)C(C)C)C(=O)N[C@@H](Cc1c[nH]cn1)C(=O)N1CCC[C@H]1C(=O)O [Ang-(1-7), Asp-Arg-Val-Tyr-Ile-His-Pro]
Human ACE
  degradation / resistance to metabolism by ACE: degraded to Ang-(1-5) and the dipeptide His-Pro; also recorded: readily degraded
Human DPP III
  degradation / resistance to metabolism by DPP III: sequentially degraded; also recorded: readily degraded
[1]
  half-life in plasma: 30 min
